Results from patent publication US8105745B2, “Radiation crosslinker” (National University of Singapore, priority 2005, dated 2012).

Columns and labels:
[1] = solubility in solvents; assay type: physicochemical
[2] = stability of the azide in acidified aqueous MeOD (19F NMR, FTIR); assay type: physicochemical
Protocol: The azide compounds according to the present invention are stable even in strongly acidic aqueous environment. […] Its ^19F NMR spectrum is acquired within 5 min and again after 21 days. […] This was further confirmed through FTIR analysis of the solid recovered by evaporation after the ^19F NMR experiment. No change in the azide stretching intensity (νasN3, 2129 cm^−1) normalized against benzene (νring, 1546 cm^−1) was observed.

| solubility in H2O [1] | change of 19F NMR spectrum ([2]; 16 mg mL^-1 in acidified deuterated MeOD containing 2.4 M HCl and 6.5 M H2O, within 5 min vs after 21 days) | change in azide stretching intensity (FTIR, 2129 cm^-1) normalized against benzene ring band ([2]; solid recovered by evaporation after the 19F NMR experiment (21 days in acidic aqueous MeOD)) | Compound |
| --- | --- | --- | --- |
| soluble in H2O | – | – | C[N+](C)(CCCNC(=O)c1c(F)c(F)c(N=[N+]=[N-])c(F)c1F)CCCNC(=O)c1c(F)c(F)c(N=[N+]=[N-])c(F)c1F [V] |
| – | No observable change | No change | N,N-dimethyl-N,N-dipropylene bis(4-azido-2,3,5,6-tetrafluorobenzamide) ammonium iodide |
